Laboratory results published in patent US11358949B2, “Carbamate and urea compounds as multikinase inhibitors” (ANGEX PHARMACEUTICAL, INC., priority 2017, dated 2022).

Assays:
AXL = biological target: T1, AXL (Homo sapiens, UniProt P30530); assay: HotSpot Kinase Assay, AXL
T1 sequence (P30530 26-894): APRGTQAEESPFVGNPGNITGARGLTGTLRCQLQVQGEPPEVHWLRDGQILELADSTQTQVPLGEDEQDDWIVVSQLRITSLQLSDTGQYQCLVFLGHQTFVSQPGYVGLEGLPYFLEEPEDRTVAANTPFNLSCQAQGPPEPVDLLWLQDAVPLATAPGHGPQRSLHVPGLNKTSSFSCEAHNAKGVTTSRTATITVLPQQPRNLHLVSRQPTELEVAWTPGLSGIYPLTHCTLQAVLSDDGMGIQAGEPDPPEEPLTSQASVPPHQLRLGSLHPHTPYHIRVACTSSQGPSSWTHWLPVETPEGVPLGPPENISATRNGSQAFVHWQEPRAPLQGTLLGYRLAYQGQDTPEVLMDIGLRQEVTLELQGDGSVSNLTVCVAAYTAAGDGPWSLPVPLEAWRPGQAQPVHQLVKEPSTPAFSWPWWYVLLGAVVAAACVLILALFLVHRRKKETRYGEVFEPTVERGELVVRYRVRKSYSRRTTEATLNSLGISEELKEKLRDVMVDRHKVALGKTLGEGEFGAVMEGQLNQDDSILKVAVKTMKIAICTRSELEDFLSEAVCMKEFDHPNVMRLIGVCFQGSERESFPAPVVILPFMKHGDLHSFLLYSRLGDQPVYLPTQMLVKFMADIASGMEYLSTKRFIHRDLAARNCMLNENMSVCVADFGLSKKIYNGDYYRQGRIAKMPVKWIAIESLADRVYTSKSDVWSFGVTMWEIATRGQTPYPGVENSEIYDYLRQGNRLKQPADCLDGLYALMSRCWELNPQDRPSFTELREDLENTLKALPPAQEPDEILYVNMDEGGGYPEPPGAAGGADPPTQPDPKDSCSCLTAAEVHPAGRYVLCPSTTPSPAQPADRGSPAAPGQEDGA
Experimental: (§1) Specifically, for each reaction, kinase and substrate were mixed in a pH 7.5 buffer containing 20 mM HEPES, 10 mM MgCl2, 1 mM EGTA [Ethylene glycol-bis(2-aminoethylether)-N,N,N′,N′-tetraacetic acid], 0.02% Brij35, 0.02 mg/mL BSA (Bovine Serum Albumin), 0.1 mM Na3VO4, 2 mM DTT, and 1% DMSO. Compounds were then added to each reaction mixture. After a 20-min incubation, ATP (Sigma-Aldrich) and [γ-^33P] ATP (PerkinElmer) were added at a final total concentration of 100 μM. Reactions were carried out at room temperature for 2 hours and spotted onto P81 ion exchange cellulose chromatography paper (Whatman). […] The percent remaining kinase activity relative to a vehicle-containing (DMSO) kinase reaction was calculated for each kinase/inhibitor pair. […] IC50 values were calculated using Prism 5 (GraphPad).

FMS = FMS (Homo sapiens, UniProt P07333); assay: HotSpot Kinase Assay, FMS
BRK = BRK (Homo sapiens, UniProt Q13882); assay: HotSpot Kinase Assay, BRK
Experimental: as §1

RET = RET (Homo sapiens, UniProt P07949); assay: HotSpot Kinase Assay, RET
Sequence of RET (P07949 29-1114): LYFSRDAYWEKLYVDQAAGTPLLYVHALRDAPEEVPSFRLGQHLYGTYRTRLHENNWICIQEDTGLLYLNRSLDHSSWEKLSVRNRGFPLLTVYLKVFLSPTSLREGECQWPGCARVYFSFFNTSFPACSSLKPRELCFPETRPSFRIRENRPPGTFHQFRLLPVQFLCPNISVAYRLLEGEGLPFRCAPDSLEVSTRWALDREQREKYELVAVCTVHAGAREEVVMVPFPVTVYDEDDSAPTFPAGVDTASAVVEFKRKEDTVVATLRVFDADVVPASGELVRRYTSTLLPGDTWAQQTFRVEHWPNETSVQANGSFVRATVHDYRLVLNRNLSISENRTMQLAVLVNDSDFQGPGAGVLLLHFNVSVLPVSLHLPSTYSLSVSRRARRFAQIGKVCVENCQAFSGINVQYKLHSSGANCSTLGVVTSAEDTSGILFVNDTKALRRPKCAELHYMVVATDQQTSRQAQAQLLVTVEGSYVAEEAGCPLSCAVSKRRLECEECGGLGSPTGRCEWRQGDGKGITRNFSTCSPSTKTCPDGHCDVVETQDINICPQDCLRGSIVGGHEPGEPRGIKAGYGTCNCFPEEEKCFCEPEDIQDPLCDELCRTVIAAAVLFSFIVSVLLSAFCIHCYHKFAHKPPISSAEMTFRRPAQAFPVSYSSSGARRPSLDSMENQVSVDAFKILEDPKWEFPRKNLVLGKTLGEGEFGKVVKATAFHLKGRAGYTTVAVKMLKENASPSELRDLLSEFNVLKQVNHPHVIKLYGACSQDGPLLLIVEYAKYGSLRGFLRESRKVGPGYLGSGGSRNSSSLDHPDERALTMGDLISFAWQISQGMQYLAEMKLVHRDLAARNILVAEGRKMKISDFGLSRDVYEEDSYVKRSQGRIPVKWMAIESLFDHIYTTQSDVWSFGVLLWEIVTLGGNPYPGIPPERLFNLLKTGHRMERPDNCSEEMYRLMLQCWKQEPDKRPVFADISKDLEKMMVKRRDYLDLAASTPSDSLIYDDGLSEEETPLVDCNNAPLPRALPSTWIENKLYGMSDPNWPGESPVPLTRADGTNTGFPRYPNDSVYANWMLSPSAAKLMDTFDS
Experimental: as §1

LCK = LCK (Homo sapiens, UniProt P06239); assay: HotSpot Kinase Assay, LCK
Sequence of LCK (P06239 whole entry): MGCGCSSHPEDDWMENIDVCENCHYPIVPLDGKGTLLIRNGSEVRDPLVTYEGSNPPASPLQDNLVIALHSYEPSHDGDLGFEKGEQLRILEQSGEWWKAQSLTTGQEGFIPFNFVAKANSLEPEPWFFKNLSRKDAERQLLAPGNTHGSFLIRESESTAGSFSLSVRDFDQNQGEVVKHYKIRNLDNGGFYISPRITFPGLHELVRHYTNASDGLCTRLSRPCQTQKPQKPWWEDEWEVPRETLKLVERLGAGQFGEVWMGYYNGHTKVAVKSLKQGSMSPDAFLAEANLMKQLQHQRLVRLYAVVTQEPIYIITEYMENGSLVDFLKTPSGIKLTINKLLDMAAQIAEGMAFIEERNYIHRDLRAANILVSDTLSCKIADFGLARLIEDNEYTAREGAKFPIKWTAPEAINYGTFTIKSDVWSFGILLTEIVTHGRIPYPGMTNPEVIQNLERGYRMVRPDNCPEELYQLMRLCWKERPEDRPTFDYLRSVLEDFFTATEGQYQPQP
Experimental: as §1

DDR1 = DDR1 (Homo sapiens, UniProt Q08345); assay: HotSpot Kinase Assay, DDR1
DDR2 = DDR2 (Homo sapiens, UniProt Q16832); assay: HotSpot Kinase Assay, DDR2
Experimental: as §1

HPK4 = HPK4 (Homo sapiens, UniProt Q8NE63); assay: HotSpot Kinase Assay, HPK4
Experimental: as §1

FLT3 = FLT3 (Homo sapiens, UniProt P36888); assay: HotSpot Kinase Assay, FLT3
Experimental: as §1

TRKA = TRKA (Homo sapiens, UniProt P04629); assay: HotSpot Kinase Assay, TRKA
Experimental: as §1

MNK2 = MNK2 (Homo sapiens, UniProt Q9HBH9); assay: HotSpot Kinase Assay, MNK2
Experimental: as §1

FLT1 = FLT1 (Homo sapiens, UniProt P17948); assay: HotSpot Kinase Assay, FLT1
Sequence of FLT1 (P17948 27-1338): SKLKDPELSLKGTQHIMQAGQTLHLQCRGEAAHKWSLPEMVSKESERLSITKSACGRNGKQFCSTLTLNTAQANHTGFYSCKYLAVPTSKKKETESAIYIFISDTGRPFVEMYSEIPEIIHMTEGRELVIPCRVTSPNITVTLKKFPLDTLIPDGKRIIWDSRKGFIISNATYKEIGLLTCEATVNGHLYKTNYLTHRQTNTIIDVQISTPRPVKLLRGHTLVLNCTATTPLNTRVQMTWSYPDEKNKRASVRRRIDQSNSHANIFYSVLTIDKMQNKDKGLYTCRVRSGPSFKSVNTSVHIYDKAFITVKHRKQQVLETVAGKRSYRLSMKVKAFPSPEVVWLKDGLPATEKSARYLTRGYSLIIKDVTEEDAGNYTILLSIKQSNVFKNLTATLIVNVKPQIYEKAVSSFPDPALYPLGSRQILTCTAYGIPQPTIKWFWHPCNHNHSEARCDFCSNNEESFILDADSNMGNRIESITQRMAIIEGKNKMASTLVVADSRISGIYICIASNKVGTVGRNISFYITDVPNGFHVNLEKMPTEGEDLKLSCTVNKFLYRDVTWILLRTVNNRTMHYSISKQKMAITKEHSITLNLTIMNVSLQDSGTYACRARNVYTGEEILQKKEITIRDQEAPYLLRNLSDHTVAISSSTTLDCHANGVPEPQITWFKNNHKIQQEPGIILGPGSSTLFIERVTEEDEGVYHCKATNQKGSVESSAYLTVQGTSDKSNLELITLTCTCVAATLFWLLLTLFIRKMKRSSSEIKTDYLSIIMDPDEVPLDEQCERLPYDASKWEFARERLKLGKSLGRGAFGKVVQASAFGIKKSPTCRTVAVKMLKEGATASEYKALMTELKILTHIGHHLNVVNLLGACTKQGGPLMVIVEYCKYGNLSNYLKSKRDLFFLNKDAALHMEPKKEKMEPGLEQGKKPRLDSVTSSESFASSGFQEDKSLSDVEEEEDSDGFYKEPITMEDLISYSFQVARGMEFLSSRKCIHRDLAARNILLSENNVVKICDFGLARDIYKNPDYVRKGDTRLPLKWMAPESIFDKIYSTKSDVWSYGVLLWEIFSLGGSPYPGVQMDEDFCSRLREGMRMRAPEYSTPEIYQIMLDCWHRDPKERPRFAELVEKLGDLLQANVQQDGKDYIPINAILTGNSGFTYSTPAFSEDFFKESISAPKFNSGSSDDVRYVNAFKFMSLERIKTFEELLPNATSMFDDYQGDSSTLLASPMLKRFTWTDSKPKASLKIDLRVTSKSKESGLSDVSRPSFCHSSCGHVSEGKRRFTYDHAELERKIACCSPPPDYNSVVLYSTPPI
Experimental: as §1

FLT4 = FLT4 (Homo sapiens, UniProt P35916); assay: HotSpot Kinase Assay, FLT4
Experimental: as §1

c-Kit = c-Kit (Homo sapiens, UniProt P10721); assay: HotSpot Kinase Assay, c-Kit
Experimental: as §1

EPHA2 = EPHA2 (Homo sapiens, UniProt P29317); assay: HotSpot Kinase Assay, EPHA2
Experimental: as §1

EPHB4 = EPHB4 (Homo sapiens, UniProt P54760); assay: HotSpot Kinase Assay, EPHB4
Experimental: as §1

EPHB2 = EPHB2 (Homo sapiens, UniProt P29323); assay: HotSpot Kinase Assay, EPHB2
Sequence of EPHB2 (P29323 19-1055): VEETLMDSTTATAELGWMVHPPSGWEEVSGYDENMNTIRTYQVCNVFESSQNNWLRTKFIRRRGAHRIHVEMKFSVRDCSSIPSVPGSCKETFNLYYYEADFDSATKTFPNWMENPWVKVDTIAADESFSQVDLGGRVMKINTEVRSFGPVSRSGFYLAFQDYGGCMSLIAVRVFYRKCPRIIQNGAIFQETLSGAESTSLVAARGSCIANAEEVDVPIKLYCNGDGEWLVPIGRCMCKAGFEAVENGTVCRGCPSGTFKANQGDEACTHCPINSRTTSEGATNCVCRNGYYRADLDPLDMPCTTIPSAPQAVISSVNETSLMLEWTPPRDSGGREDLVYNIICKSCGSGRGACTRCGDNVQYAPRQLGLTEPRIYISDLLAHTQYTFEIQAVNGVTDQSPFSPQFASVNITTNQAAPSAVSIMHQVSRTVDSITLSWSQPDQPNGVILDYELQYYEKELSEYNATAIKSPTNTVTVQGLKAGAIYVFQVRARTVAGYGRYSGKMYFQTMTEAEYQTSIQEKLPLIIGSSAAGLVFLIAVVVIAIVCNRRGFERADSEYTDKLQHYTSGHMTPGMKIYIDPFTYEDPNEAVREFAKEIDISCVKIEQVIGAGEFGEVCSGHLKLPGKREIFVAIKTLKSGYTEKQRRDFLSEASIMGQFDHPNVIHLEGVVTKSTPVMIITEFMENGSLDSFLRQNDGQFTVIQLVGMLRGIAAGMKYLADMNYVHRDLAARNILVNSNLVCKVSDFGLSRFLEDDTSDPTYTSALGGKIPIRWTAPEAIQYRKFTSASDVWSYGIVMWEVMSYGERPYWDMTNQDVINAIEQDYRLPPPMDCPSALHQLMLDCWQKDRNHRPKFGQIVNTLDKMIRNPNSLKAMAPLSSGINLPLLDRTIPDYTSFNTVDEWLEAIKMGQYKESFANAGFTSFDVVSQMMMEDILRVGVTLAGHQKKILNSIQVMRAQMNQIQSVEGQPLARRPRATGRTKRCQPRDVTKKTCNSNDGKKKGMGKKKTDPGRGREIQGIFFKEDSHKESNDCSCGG
Experimental: as §1

EPHA4 = EPHA4 (Homo sapiens, UniProt P54764); assay: HotSpot Kinase Assay, EPHA4
Experimental: as §1

EPHB1 = EPHB1 (Homo sapiens, UniProt P54762); assay: HotSpot Kinase Assay, EPHB1
Experimental: as §1

EPHA1 = EPHA1 (Homo sapiens, UniProt P21709); assay: HotSpot Kinase Assay, EPHA1
Sequence of EPHA1 (P21709 26-976): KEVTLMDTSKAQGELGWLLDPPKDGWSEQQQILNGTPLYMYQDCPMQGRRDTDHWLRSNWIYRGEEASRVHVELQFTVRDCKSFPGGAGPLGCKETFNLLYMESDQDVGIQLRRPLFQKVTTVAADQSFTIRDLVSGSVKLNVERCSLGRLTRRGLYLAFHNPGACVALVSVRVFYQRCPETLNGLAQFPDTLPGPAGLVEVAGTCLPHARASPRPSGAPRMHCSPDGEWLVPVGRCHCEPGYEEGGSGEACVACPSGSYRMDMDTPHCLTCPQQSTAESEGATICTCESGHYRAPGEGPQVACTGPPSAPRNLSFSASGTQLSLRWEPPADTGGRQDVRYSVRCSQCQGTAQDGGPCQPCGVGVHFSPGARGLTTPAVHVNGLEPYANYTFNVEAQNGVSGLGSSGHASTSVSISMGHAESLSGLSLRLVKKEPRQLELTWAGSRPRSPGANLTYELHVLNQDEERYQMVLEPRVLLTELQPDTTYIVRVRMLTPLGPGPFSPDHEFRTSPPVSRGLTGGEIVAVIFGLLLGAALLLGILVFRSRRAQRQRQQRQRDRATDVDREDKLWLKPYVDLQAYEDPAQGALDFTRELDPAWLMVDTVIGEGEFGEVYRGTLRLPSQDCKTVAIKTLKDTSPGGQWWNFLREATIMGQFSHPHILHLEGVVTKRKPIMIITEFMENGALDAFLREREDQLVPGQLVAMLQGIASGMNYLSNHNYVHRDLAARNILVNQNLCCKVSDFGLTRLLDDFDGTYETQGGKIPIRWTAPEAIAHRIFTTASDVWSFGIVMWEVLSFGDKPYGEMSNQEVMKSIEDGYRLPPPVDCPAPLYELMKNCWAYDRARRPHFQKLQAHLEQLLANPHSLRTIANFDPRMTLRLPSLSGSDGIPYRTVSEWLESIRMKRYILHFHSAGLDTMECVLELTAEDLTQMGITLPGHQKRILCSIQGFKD
Experimental: as §1

PLK4/SAK = PLK4/SAK (Homo sapiens, UniProt O00444); assay: HotSpot Kinase Assay, PLK4/SAK
Experimental: as §1

FRK/PTK5 = FRK/PTK5 (Homo sapiens, UniProt P42685); assay: HotSpot Kinase Assay, FRK/PTK5
Experimental: as §1

SLK/STK2 = SLK/STK2 (Homo sapiens, UniProt Q9H2G2); assay: HotSpot Kinase Assay, SLK/STK2
Experimental: as §1

RON/MST1R = RON/MST1R (Homo sapiens, UniProt Q04912); assay: HotSpot Kinase Assay, RON/MST1R
Experimental: as §1

KDR/VEGFR2 = KDR/VEGFR2 (Homo sapiens, UniProt P35968); assay: HotSpot Kinase Assay, KDR/VEGFR2
Experimental: as §1

KHS/MAP4K5 = KHS/MAP4K5 (Homo sapiens, UniProt Q9Y4K4); assay: HotSpot Kinase Assay, KHS/MAP4K5
Experimental: as §1

COc1cc2c(Oc3ccc(NC(=O)C4(C(=O)Nc5ccc(F)cc5)CC4)cc3)ccnc2cc1OC(=O)N1CCN(C)CC1 [Compound 1-10]
IC50 (AXL): < 100 nM | IC50 (FMS): < 100 nM | IC50 (BRK): < 100 nM | IC50 (RET): 100 to 1000 nM | IC50 (LCK): 100 to 1000 nM | IC50 (DDR1): < 100 nM | IC50 (DDR2): < 100 nM | IC50 (HPK4): < 100 nM | IC50 (FLT3): < 100 nM | IC50 (TRKA): < 100 nM | IC50 (MNK2): 100 to 1000 nM | IC50 (FLT1): 100 to 1000 nM | IC50 (FLT4): 100 to 1000 nM | IC50 (c-Kit): < 100 nM | IC50 (EPHA2): < 100 nM | IC50 (EPHB4): 100 to 1000 nM | IC50 (EPHB2): 100 to 1000 nM | IC50 (EPHA4): 100 to 1000 nM | IC50 (EPHB1): 100 to 1000 nM | IC50 (EPHA1): > 1000 nM | IC50 (PLK4/SAK): > 1000 nM | IC50 (FRK/PTK5): > 1000 nM | IC50 (SLK/STK2): > 1000 nM | IC50 (RON/MST1R): > 1000 nM | IC50 (KDR/VEGFR2): 100 to 1000 nM | IC50 (KHS/MAP4K5): > 1000 nM
